Measurements published in patent publication US5610174A, “Use of α1A -selective adrenoceptor agonists for the treatment of urinary incontinence” (priority 1995, dated 1997).
Like-named read-outs stand apart in the source and are kept apart here.

Experiments:
[1] = target: T1, human histamine H1 receptor (Homo sapiens, UniProt P35367); experiment: Radioligand binding at cloned human histamine H1; details: [3H]mepyramine; for Ki: read-out: pKi H1 (converted)
T1 construct: expressed in transfected cells; host or cells: COS-7 (plasmid pcEXV-H1, ATCC 75346)
T1 sequence (P35367 whole entry): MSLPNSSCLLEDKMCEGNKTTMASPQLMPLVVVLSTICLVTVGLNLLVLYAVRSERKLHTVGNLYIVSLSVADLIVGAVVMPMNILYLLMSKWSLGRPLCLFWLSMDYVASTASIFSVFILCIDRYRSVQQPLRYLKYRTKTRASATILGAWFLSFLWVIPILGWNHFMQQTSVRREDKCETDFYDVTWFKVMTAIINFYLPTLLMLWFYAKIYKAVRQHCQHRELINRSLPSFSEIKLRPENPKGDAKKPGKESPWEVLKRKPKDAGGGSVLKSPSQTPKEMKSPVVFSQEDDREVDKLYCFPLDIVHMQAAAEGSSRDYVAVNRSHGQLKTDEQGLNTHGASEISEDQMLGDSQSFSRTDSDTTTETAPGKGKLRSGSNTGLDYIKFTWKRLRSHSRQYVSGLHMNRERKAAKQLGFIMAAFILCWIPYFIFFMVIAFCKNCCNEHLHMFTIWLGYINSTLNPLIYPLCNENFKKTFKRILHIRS
Method: Human Histamine H1 Receptor
The coding sequence of the human histamine H1 receptor, homologous to the bovine H1 receptor, was obtained from a human hippocampal cDNA library, and was cloned into the eukaryotic expression vector pCEXV-3. The plasmid DNA for the H1 receptor is designated pcEXV-H1, and was deposited on Nov. 6, 1992 under ATCC Accession No. 75346. This construct was transfected into COS-7 cells by the DEAE-dextran method. Cells were harvested after 72 hours and lysed by sonication in 5 mM Tris-HCl, 5 mM EDTA, pH 7.5. The cell lysates were centrifuged at 1000 rpm for 5 min at 4° C., and the supernatant was centrifuged at 30,000×g for 20 min. at 4° C. The pellet was suspended in 37.8 mM NaHPO4, 12.2 mM KH2 PO4, pH 7.5. […]. The bound radioligand was separated by filtration through GF/B filters using a cell harvester.

[2] = target: T2, human dopamine D1 receptor (Homo sapiens, UniProt P21728); experiment: Radioligand binding at human dopamine D1; details: for Ki: read-out: pKi D1 (converted)
T2 construct: expressed in transfected cells
T2 sequence (P21728 whole entry): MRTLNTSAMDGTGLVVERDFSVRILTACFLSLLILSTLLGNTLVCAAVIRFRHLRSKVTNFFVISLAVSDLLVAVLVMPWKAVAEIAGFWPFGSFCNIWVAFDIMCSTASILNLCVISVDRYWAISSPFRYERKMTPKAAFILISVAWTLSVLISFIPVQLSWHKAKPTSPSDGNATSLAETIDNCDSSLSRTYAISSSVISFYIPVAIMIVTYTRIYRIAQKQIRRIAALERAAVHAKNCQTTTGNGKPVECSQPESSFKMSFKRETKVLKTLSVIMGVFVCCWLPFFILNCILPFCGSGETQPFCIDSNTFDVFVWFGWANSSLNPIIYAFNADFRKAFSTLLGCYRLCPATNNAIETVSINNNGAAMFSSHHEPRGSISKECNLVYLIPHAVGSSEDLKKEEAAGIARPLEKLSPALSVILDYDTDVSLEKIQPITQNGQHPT
Method: Other Dopamine receptors were prepared by known methods. (D1 : Dearry et al., Nature, 347, 72, (1990), deposited with the European Molecular Biological Laboratory (EMBL) Genbank as X55760; D3 : Sokoloff, P. et al., Nature, 347, 146 (1990), deposited with the European Molecular Biological Laboratory (EMBL) Genbank as X53944; D5 : Sunahara, R. K., et al., Nature, 350, 614 (1991), deposited with EMBL Genbank as X58454-HU HD 5DR).

human 5-HT1Dα receptor = target: T3, human 5-HT1Dα receptor (Homo sapiens, UniProt P28221); experiment: Radioligand binding at human 5-HT1Dα
T3 construct: expressed in transfected cells; host or cells: LM(tk-) clonal cell line, designated Ltk-8-30-84, ATCC CRL 10421 (cell lysates)
T3 sequence (P28221 whole entry): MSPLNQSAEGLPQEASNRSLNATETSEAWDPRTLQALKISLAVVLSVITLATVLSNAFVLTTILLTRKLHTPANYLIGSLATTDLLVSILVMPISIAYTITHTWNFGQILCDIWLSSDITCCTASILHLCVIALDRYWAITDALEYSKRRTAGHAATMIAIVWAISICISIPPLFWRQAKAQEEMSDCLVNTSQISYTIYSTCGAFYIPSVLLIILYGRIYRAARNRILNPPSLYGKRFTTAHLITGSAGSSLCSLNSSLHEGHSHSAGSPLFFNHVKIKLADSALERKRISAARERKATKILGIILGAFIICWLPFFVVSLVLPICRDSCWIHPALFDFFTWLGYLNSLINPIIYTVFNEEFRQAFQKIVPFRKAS
Method: (§1) Human Serotonin Receptors
5-HT1Dα, 5-HT1Dβ, 5-HT1E, 5-HT1F, and 5-HT7 Receptors: The cell lysates of LM(tk-) clonal cell line stably transfected with the genes encoding each of these 5-HT receptor-subtypes were prepared as described above. The cell line for the 5-HT1Dαreceptor, designated as Ltk-8-30-84, was deposited on Apr. […] The cell for the 5-HT1Dβ receptor, designated as Ltk-11, was deposited on Apr. […] The cell line for the 5-HT1E receptor, designated 5-HT1E -7, was deposited on Nov. […] The cell line for the 5-HT1F receptor, designated L-5-HT1F, was deposited on Dec. […] The cell line for the 5-HT7 receptor, designated as L-5-HT-4B, was deposited on Oct. […] These preparations were suspended in 50 mM Tris-HCl buffer (pH 7.4 at 37° C.) containing 10 mM MgCl2, 0.2 mM EDTA, 10 μM pargyline, and 0.1% ascorbate. […] Nonspecific binding was determined in the presence of 10 μM serotonin. The bound radioligand was separated by filtration through GF/B filters using a cell harvester.

human 5-HT1E receptor = target: T4, human 5-HT1E receptor (Homo sapiens, UniProt P28566); experiment: Radioligand binding at human 5-HT1E; details: [3H]serotonin; for Ki: read-out: pKi 5-HT1E (converted)
T4 construct: expressed in transfected cells; host or cells: LM(tk-) clonal cell line, designated 5-HT1E-7, ATCC CRL 10913 (cell lysates)
T4 sequence (P28566 whole entry): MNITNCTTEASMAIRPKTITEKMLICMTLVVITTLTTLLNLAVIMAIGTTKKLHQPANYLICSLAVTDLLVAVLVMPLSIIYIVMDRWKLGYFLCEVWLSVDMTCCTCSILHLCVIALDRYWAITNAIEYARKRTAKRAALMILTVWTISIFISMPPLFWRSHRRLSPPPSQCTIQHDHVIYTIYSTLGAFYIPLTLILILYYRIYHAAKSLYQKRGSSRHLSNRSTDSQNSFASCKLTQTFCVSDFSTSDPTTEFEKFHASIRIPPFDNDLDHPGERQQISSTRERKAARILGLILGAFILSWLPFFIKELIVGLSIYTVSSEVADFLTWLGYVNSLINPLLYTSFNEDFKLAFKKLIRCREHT
Method: as §1
5-HT1Dα, 5-HT1Dβ, 5-HT1E, 5-HT1F, and 5-HT7 Receptors: The cell lysates of LM(tk-) clonal cell line stably transfected with the genes encoding each of these 5-HT receptor-subtypes were prepared as described above. The cell line for the 5-HT1Dαreceptor, designated as Ltk-8-30-84, was deposited on Apr. 17, 1990, and accorded ATCC Accession No. CRL 10421. The cell for the 5-HT1Dβ receptor, designated as Ltk-11, was deposited on Apr. 17, 1990, and accorded ATCC Accession No. CRL 10422. The cell line for the 5-HT1E receptor, designated 5-HT1E -7, was deposited on Nov. 6, 1991, and accorded ATCC Accession No. CRL 10913. The cell line for the 5-HT1F receptor, designated L-5-HT1F, was deposited on Dec. 27, 1991, and accorded ATCC Accession No. CRL 10957. The cell line for the 5-HT7 receptor, designated as L-5-HT-4B, was deposited on Oct. 20, 1992, and accorded ATCC Accession No. CRL 11166. These preparations were suspended in 50 mM Tris-HCl buffer (pH 7.4 at 37° C.) containing 10 mM MgCl2, 0.2 mM EDTA, 10 μM pargyline, and 0.1% ascorbate. […] Nonspecific binding was determined in the presence of 10 μM serotonin. The bound radioligand was separated by filtration through GF/B filters using a cell harvester.

[3] = target: T5, rat atrial β-adrenoceptors (Rattus norvegicus, UniProt P18090); experiment: β-Adrenoceptor activity in isolated rat right atrium; details: vs isoprenaline, up to 100 μM; for Ki: read-out: pKi β (rat atrial β-adrenoceptors) (converted)
T5 construct: Right atria were removed from rats and placed immediately into oxygenated Krebs solution; from tissue; host or cells: isolated, spontaneously beating rat right atrium
T5 sequence (P18090 whole entry): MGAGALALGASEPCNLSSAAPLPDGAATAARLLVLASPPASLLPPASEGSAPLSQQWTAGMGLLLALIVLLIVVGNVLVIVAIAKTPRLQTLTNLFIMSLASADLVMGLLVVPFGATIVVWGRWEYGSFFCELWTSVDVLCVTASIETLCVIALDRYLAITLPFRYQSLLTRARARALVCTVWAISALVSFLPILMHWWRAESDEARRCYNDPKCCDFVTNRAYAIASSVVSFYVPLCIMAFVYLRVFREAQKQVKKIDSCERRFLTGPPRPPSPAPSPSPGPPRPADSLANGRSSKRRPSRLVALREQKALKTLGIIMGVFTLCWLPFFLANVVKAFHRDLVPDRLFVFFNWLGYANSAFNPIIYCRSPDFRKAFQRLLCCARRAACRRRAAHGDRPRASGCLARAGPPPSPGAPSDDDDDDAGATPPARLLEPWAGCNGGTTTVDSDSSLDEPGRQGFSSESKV
Method: Determination of -Adrenoceptor Activity in the Isolated Rat Right Atrium
Right atria were removed from rats and placed immediately into oxygenated Krebs solution at 37° C. The Krebs solution was replaced three times at 5 min intervals and the tissues were tensioned three times to 0.5 g. In spontaneously beating atria, a control concentration effect curve to isoprenaline was generated. β-Adrenoceptor-mediated increase in atrial rate were measured as the response. […]. The antagonist effects of the test compounds were measured using the dose-ratio method, by comparing the shift in pEC50 for isoprenaline.

Row | SMILES | Ki [1] [µM] | Ki [2] [µM] | Ki (human 5-HT1Dα receptor) [µM] | Ki (human 5-HT1E receptor) [µM] | Ki [3] [µM] | pKi H1 [1] | pKi D1 [2] | pKi 5-HT1Dα (human 5-HT1Dα receptor; [3H]serotonin) | pKi 5-HT1E (human 5-HT1E receptor) | pKi β (rat atrial β-adrenoceptors) [3] | Ki (human 5-HT1Dα receptor; [3H]serotonin, read-out: pKi 5-HT1Dα (converted)) [µM]
1 | COc1ccc(SC)c2c1C[C@@H]1[C@@H](C2)OCCN1C (relative stereo) [SDZ NVI-085, (±)-trans-4-Methyl-6-methoxy-9-thiomethoxy-3,4,4a, 5,10,10a-hexahydro-2H-naphtho[2,3-b][1,4]oxazine] | 5.01 | 7.94 | 0.0126 | 2 | > 100 | – | – | – | – | – | –
2 | CNCCc1ccc(O)c(NS(C)(=O)=O)c1 [SK&F 102652] | – | – | – | – | – | 4.3 | 5.0 | 5.9 | 5.3 | < 4 | –
3 | CS(=O)(=O)Nc1c(O)ccc2c1CCCC2C1=NCCN1 (racemic) [Compound A-61603, (±)-N-[5-(4,5-Dihydro-1H-imidazol-2-yl)-2-hydroxy-5,6,7,8-tetra-hydronaphthalen-1-yl]methanesulfonamide] | 50.1 | 20 | – | 5.01 | > 100 | – | – | – | – | – | 2.51
